Here are results for 23 molecules from ChEMBL document CHEMBL1123701, “Synthesis and quantitative structure-activity relationship analysis of N-triiodoallyl- and N-iodopropargylazoles. New antifungal agents” (1987).

In brackets after ≈: the same amount, converted by molar mass.

The test system of one test is Aspergillus fumigatus. The test is described as follows: Antifungal activity against Aspergillus fumigatus Saito strain. In kind it is functional.
For the next test, the system named is Candida albicans. The test is described as follows: Antifungal activity against Candida albicans C-A-24 strain. In kind it is functional.
Another test concerns Cryptococcus neoformans. The test is described as follows: Antifungal activity against Cryptococcus neoformans Cr-1 strain. The test is classed as functional.
In test [1] the test system is Trichophyton interdigitale. The test is described as follows: Antifungal activity towards Trichophyton interdigitale. In kind it is functional.
In a further test the test system is Trichophyton benhamiae. The test is described as follows: Antifungal activity towards Trichophyton mentagrophytes 530324 strain. In kind it is functional, Arthroderma benhamiae.

Broadly, the MIC is the least concentration at which growth counts as inhibited. For `IC#CCn1ccnc1`, the MIC in the test with Aspergillus fumigatus is 12.5 µg/mL (≈ 53.9 µM); with Candida albicans it was 12.5 µg/mL (≈ 53.9 µM); in the test on Cryptococcus neoformans, 6.25 µg/mL (≈ 26.9 µM); in test [1], 6.25 µg/mL (≈ 26.9 µM); in the test on Trichophyton benhamiae, 6.25 µg/mL (≈ 26.9 µM).

Take `IC#CCn1nccn1`: the MIC against Aspergillus fumigatus was determined as 0.78 µg/mL (≈ 3.35 µM); against Candida albicans it was 1.56 µg/mL (≈ 6.69 µM); with Cryptococcus neoformans it was 1.56 µg/mL (≈ 6.69 µM); in test [1], 0.78 µg/mL (≈ 3.35 µM); with Trichophyton benhamiae, 0.39 µg/mL (≈ 1.67 µM).

Regarding `Clc1cccc(-c2nnn(CC#CI)n2)c1`, the MIC came out at 0.78 µg/mL (≈ 2.26 µM) in the test on Aspergillus fumigatus; 0.78 µg/mL (≈ 2.26 µM) against Candida albicans; 0.39 µg/mL (≈ 1.13 µM) in the test on Cryptococcus neoformans; 0.1 µg/mL (≈ 0.29 µM) in test [1]; 0.1 µg/mL (≈ 0.29 µM) against Trichophyton benhamiae.

For the molecule `O=[N+]([O-])c1cccn1CC#CI`, the MIC came out at 0.39 µg/mL (≈ 1.41 µM) in the test with Aspergillus fumigatus; 0.78 µg/mL (≈ 2.83 µM) in the test with Candida albicans; 0.39 µg/mL (≈ 1.41 µM) against Cryptococcus neoformans; 0.39 µg/mL (≈ 1.41 µM) in test [1]; 0.1 µg/mL (≈ 0.362 µM) in the test on Trichophyton benhamiae.

As for `Cc1nnnn1CC#CI`, the MIC was 6.25 µg/mL (≈ 25.2 µM) against Aspergillus fumigatus; 6.25 µg/mL (≈ 25.2 µM) with Candida albicans; 3.13 µg/mL (≈ 12.6 µM) in the test on Cryptococcus neoformans; 3.13 µg/mL (≈ 12.6 µM) in test [1]; 3.13 µg/mL (≈ 12.6 µM) against Trichophyton benhamiae.

Turning to `CC(C)c1nnn(CC#CI)n1`, the minimum inhibitory concentration (MIC) in the test with Aspergillus fumigatus turned out to be 0.78 µg/mL (≈ 2.83 µM); in the test on Candida albicans, 1.56 µg/mL (≈ 5.65 µM); in the test on Cryptococcus neoformans it was 3.13 µg/mL (≈ 11.3 µM); in test [1], 0.78 µg/mL (≈ 2.83 µM); against Trichophyton benhamiae, 0.78 µg/mL (≈ 2.83 µM).

In the case of `Fc1ccc(-c2nnn(CC#CI)n2)cc1`, the MIC was 0.2 µg/mL (≈ 0.61 µM) with Aspergillus fumigatus; 0.78 µg/mL (≈ 2.38 µM) against Candida albicans; 0.78 µg/mL (≈ 2.38 µM) against Cryptococcus neoformans; 0.1 µg/mL (≈ 0.305 µM) in test [1]; 0.1 µg/mL (≈ 0.305 µM) against Trichophyton benhamiae.

Turning to `IC(I)=C(I)Cn1nnnc1C1CC1`, the MIC was 1.56 µg/mL (≈ 2.96 µM) against Aspergillus fumigatus; 25 µg/mL (≈ 47.4 µM) against Candida albicans; over 25 µg/mL with Cryptococcus neoformans; 1.56 µg/mL (≈ 2.96 µM) in test [1]; 0.78 µg/mL (≈ 1.48 µM) in the test with Trichophyton benhamiae.

`CC(C)Cc1nnn(CC#CI)n1`: the MIC in the test on Aspergillus fumigatus stood at 0.78 µg/mL (≈ 2.69 µM); against Candida albicans, 3.13 µg/mL (≈ 10.8 µM); against Cryptococcus neoformans it was 3.13 µg/mL (≈ 10.8 µM); in test [1] it was 0.39 µg/mL (≈ 1.34 µM); against Trichophyton benhamiae, 0.39 µg/mL (≈ 1.34 µM).

Take `CC(=O)c1cccn1CC(I)=C(I)I`: the minimal inhibitory concentration (MIC) was 12.5 µg/mL (≈ 23.7 µM) in the test with Aspergillus fumigatus; 12.5 µg/mL (≈ 23.7 µM) with Candida albicans; over 25 µg/mL against Cryptococcus neoformans; 0.39 µg/mL (≈ 0.74 µM) in test [1]; 1.56 µg/mL (≈ 2.96 µM) against Trichophyton benhamiae.

`Clc1cc(Cl)cc(-c2nnn(CC#CI)n2)c1`: the MIC with Aspergillus fumigatus stood at 1.56 µg/mL (≈ 4.12 µM); in the test on Candida albicans it was 1.56 µg/mL (≈ 4.12 µM); with Cryptococcus neoformans it was 0.39 µg/mL (≈ 1.03 µM); in test [1], 0.1 µg/mL (≈ 0.264 µM); with Trichophyton benhamiae, 0.1 µg/mL (≈ 0.264 µM).

In the case of `Cc1cncn1CC(I)=C(I)I`, the MIC amounted to 3.13 µg/mL (≈ 6.26 µM) against Aspergillus fumigatus; 12.5 µg/mL (≈ 25 µM) in the test on Candida albicans; 12.5 µg/mL (≈ 25 µM) in the test on Cryptococcus neoformans; 1.56 µg/mL (≈ 3.12 µM) in test [1]; 1.56 µg/mL (≈ 3.12 µM) with Trichophyton benhamiae.

For `O=C(O)c1ccc(-c2nnn(CC#CI)n2)cc1`, the MIC in the test with Aspergillus fumigatus was over 100 µg/mL; in the test with Candida albicans it was over 100 µg/mL; against Cryptococcus neoformans, 100 µg/mL (≈ 282 µM); in test [1] it was 6.25 µg/mL (≈ 17.7 µM); in the test with Trichophyton benhamiae it was 25 µg/mL (≈ 70.6 µM).

Take `N#Cc1ccc(-c2nnn(CC#CI)n2)cc1`: the MIC in the test with Aspergillus fumigatus turned out to be 6.25 µg/mL (≈ 18.7 µM); in the test on Candida albicans, 50 µg/mL (≈ 149 µM); with Cryptococcus neoformans it was 50 µg/mL (≈ 149 µM); in test [1] it was 1.56 µg/mL (≈ 4.66 µM); with Trichophyton benhamiae it was 3.13 µg/mL (≈ 9.34 µM).

With `O=[N+]([O-])c1ncnn1CC#CI`, the MIC was 0.39 µg/mL (≈ 1.4 µM) in the test on Aspergillus fumigatus; 3.13 µg/mL (≈ 11.3 µM) against Candida albicans; 0.78 µg/mL (≈ 2.81 µM) against Cryptococcus neoformans; 0.78 µg/mL (≈ 2.81 µM) in test [1]; 0.39 µg/mL (≈ 1.4 µM) in the test on Trichophyton benhamiae.

Take `IC(I)=C(I)Cn1cncn1`: the MIC with Aspergillus fumigatus came to 0.2 µg/mL (≈ 0.411 µM); in the test with Candida albicans it was 1.56 µg/mL (≈ 3.2 µM); in the test on Cryptococcus neoformans, 6.25 µg/mL (≈ 12.8 µM); in test [1] it was 0.39 µg/mL (≈ 0.801 µM); in the test on Trichophyton benhamiae it was 0.78 µg/mL (≈ 1.6 µM).

As to `IC#CCn1nnc(-c2ccccc2)n1`, the MIC amounted to 0.2 µg/mL (≈ 0.645 µM) in the test with Aspergillus fumigatus; 0.78 µg/mL (≈ 2.52 µM) against Candida albicans; 1.56 µg/mL (≈ 5.03 µM) in the test on Cryptococcus neoformans; 0.39 µg/mL (≈ 1.26 µM) in test [1]; 0.2 µg/mL (≈ 0.645 µM) against Trichophyton benhamiae.

For `CC(C)(C)c1nnn(CC#CI)n1`, the MIC in the test with Aspergillus fumigatus turned out to be 1.56 µg/mL (≈ 5.38 µM); in the test with Candida albicans, 3.13 µg/mL (≈ 10.8 µM); in the test with Cryptococcus neoformans it was 25 µg/mL (≈ 86.2 µM); in test [1] it was 0.78 µg/mL (≈ 2.69 µM); in the test with Trichophyton benhamiae it was 0.78 µg/mL (≈ 2.69 µM).

As to `CCOC(=O)c1cn(CC(I)=C(I)I)c(Cl)c1Cl`, the minimal inhibitory concentration (MIC) against Aspergillus fumigatus was 25 µg/mL (≈ 39.9 µM); in the test on Candida albicans it was 25 µg/mL (≈ 39.9 µM); in the test with Cryptococcus neoformans it was 25 µg/mL (≈ 39.9 µM); in test [1], 3.13 µg/mL (≈ 5 µM); in the test on Trichophyton benhamiae it was 3.13 µg/mL (≈ 5 µM).

As to `CC(=O)c1c(C)cn(CC#CI)c1C`, the MIC was determined as 3.13 µg/mL (≈ 10.4 µM) in the test on Aspergillus fumigatus; 25 µg/mL (≈ 83 µM) with Candida albicans; 25 µg/mL (≈ 83 µM) in the test with Cryptococcus neoformans; 6.25 µg/mL (≈ 20.8 µM) in test [1]; 1.56 µg/mL (≈ 5.18 µM) in the test with Trichophyton benhamiae.

On to `CC(C)Cc1nnnn1CC#CI`, for which the MIC stood at 3.13 µg/mL (≈ 10.8 µM) against Aspergillus fumigatus; 12.5 µg/mL (≈ 43.1 µM) against Candida albicans; 6.25 µg/mL (≈ 21.5 µM) against Cryptococcus neoformans; 1.56 µg/mL (≈ 5.38 µM) in test [1]; 1.56 µg/mL (≈ 5.38 µM) in the test on Trichophyton benhamiae.

As to `NC(=O)c1ccc(-c2nnn(CC#CI)n2)cc1`, the MIC was over 100 µg/mL with Aspergillus fumigatus; over 100 µg/mL in the test with Candida albicans; 12.5 µg/mL (≈ 35.4 µM) in the test on Cryptococcus neoformans; 3.13 µg/mL (≈ 8.86 µM) in test [1]; 6.25 µg/mL (≈ 17.7 µM) in the test with Trichophyton benhamiae.

With `CCc1nnnn1CC(I)=C(I)I`, the MIC in the test on Aspergillus fumigatus is 25 µg/mL (≈ 48.5 µM); against Candida albicans it was over 25 µg/mL; with Cryptococcus neoformans, over 25 µg/mL; in test [1] it was 3.13 µg/mL (≈ 6.07 µM); against Trichophyton benhamiae it was 1.56 µg/mL (≈ 3.02 µM).
